Test results as given in ChEMBL document CHEMBL4507259 (2021).

Tests used:
[1] = system: Proto-oncogene tyrosine-protein kinase receptor Ret (Homo sapiens), P07949 [M918T]; conditions: Compound concentration 1000.0 nM
[2] = target: Serine/threonine-protein kinase RIO2 (Homo sapiens) (UniProt Q9BVS4); conditions: Compound concentration 1000.0 nM
[3] = target: Delta-type opioid receptor (Homo sapiens) (UniProt P41143); experiment: delta (DOP) (h) CEREP ligand profiling; conditions: filed as agonist, Compound concentration 10.0 uM
[4] = target: Type-1 angiotensin II receptor (Homo sapiens) (UniProt P30556); experiment: AT1 (h) CEREP ligand profiling; conditions: filed as antagonist, Compound concentration 10.0 uM
[5] = target: Dual specificity mitogen-activated protein kinase kinase 5 (Homo sapiens) (UniProt Q13163); conditions: Compound concentration 1000.0 nM
[6] = target: Dual specificity testis-specific protein kinase 1 (Homo sapiens) (UniProt Q15569); conditions: Compound concentration 1000.0 nM
[7] = target: T1, Alpha-2A adrenergic receptor (Homo sapiens) (UniProt P08913); experiment: alpha 2A (h) CEREP ligand profiling; conditions: filed as antagonist, Compound concentration 10.0 uM
T1 sequence (whole entry): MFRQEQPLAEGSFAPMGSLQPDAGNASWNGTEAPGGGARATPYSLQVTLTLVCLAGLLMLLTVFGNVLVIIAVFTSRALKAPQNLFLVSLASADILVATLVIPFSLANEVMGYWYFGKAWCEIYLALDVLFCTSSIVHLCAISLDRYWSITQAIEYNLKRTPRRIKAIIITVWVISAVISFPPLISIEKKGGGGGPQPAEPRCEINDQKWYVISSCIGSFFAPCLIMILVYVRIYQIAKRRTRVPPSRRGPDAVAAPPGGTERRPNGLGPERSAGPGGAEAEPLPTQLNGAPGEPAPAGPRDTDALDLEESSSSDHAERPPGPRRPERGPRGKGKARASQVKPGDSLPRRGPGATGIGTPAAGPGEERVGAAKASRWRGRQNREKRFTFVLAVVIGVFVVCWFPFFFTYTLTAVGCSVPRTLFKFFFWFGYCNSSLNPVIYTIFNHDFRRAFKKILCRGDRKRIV

[8] = target: Tyrosine-protein kinase Blk (Homo sapiens) (UniProt P51451); conditions: Compound concentration 1000.0 nM
[9] = target: Calcium/calmodulin-dependent protein kinase type 1D (Homo sapiens) (UniProt Q8IU85); conditions: Compound concentration 1000.0 nM
[10] = system: Phosphatidylinositol 4,5-bisphosphate 3-kinase catalytic subunit alpha isoform (Homo sapiens), P42336 [E545A]; conditions: Compound concentration 1000.0 nM
[11] = target: T2, 5-hydroxytryptamine receptor 2C (Homo sapiens) (UniProt P28335); conditions: Compound concentration 10.0 uM
T2 sequence (whole entry): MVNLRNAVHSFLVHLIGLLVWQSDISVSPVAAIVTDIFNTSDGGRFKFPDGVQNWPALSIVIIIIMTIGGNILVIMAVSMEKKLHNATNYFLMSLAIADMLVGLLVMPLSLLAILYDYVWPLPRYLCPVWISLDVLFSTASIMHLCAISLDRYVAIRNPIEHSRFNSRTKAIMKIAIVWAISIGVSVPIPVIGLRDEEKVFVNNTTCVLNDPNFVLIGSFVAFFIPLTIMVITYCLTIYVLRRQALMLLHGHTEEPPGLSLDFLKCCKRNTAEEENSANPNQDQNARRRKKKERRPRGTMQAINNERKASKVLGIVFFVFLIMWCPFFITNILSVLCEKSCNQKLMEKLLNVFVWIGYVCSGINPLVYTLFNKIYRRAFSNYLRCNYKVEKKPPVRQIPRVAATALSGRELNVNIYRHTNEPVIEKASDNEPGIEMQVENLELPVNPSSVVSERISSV

[12] = target: Sodium-dependent noradrenaline transporter (Homo sapiens) (UniProt P23975); experiment: norepinephrine transporter (h) CEREP ligand profiling; conditions: filed as antagonist, Compound concentration 10.0 uM
[13] = target: Tyrosine-protein kinase JAK3 (Homo sapiens) (UniProt P52333); conditions: Compound concentration 1000.0 nM
[14] = system: Receptor-type tyrosine-protein kinase FLT3 (Homo sapiens), P36888 [D835V]; conditions: Compound concentration 1000.0 nM
[15] = target: Sigma non-opioid intracellular receptor 1 (Homo sapiens) (UniProt Q99720); experiment: sigma (non-selective) (h) CEREP ligand profiling; conditions: filed as agonist, Compound concentration 10.0 uM
[16] = target: Fibroblast growth factor receptor 3 (Homo sapiens) (UniProt P22607); conditions: Compound concentration 1000.0 nM
[17] = target: Cyclin-dependent kinase 4 (Homo sapiens) (UniProt P11802); conditions: Compound concentration 1000.0 nM
[18] = target: MAP kinase-activated protein kinase 2 (Homo sapiens) (UniProt P49137); conditions: Compound concentration 1000.0 nM
[19] = system: Tyrosine-protein kinase ABL1 (Homo sapiens), P00519 [Q252H]; conditions: Compound concentration 1000.0 nM
[20] = target: Inhibitor of nuclear factor kappa-B kinase subunit alpha (Homo sapiens) (UniProt O15111); conditions: Compound concentration 1000.0 nM
[21] = target: Serine/threonine-protein kinase PAK 6 (Homo sapiens) (UniProt Q9NQU5); conditions: Compound concentration 1000.0 nM
[22] = target: 5-hydroxytryptamine receptor 7 (Homo sapiens) (UniProt P34969); experiment: 5-HT7 (h) CEREP ligand profiling; conditions: filed as agonist, Compound concentration 10.0 uM
[23] = target: Cyclin-dependent kinase 14 (Homo sapiens) (UniProt O94921); conditions: Compound concentration 1000.0 nM
[24] = target: Serine/threonine-protein kinase ULK1 (Homo sapiens) (UniProt O75385); conditions: Compound concentration 1000.0 nM
[25] = target: Beta-1 adrenergic receptor (Homo sapiens) (UniProt P08588); experiment: beta 1 (h) CEREP ligand profiling; conditions: filed as agonist, Compound concentration 10.0 uM
[26] = system: Tyrosine-protein kinase ABL1 (Homo sapiens), P00519 [Q252H]; conditions: Compound concentration 1000.0 nM; remark: listed apart in the source
[27] = target: Mitogen-activated protein kinase 4 (Homo sapiens) (UniProt P31152); conditions: Compound concentration 1000.0 nM
[28] = target: TRAF2 and NCK-interacting protein kinase (Homo sapiens) (UniProt Q9UKE5); conditions: Compound concentration 1000.0 nM
[29] = target: Peroxisome proliferator-activated receptor gamma (Homo sapiens) (UniProt P37231); experiment: PPARgamma (h) CEREP ligand profiling; conditions: filed as agonist, Compound concentration 10.0 uM
[30] = target: Serine/threonine-protein kinase PAK 4 (Homo sapiens) (UniProt O96013); conditions: Compound concentration 1000.0 nM
[31] = system: Receptor-type tyrosine-protein kinase FLT3 (Homo sapiens), P36888 [D835H]; conditions: Compound concentration 1000.0 nM

Cyclin-dependent kinase 14 (Homo sapiens), sequence (O94921 whole entry): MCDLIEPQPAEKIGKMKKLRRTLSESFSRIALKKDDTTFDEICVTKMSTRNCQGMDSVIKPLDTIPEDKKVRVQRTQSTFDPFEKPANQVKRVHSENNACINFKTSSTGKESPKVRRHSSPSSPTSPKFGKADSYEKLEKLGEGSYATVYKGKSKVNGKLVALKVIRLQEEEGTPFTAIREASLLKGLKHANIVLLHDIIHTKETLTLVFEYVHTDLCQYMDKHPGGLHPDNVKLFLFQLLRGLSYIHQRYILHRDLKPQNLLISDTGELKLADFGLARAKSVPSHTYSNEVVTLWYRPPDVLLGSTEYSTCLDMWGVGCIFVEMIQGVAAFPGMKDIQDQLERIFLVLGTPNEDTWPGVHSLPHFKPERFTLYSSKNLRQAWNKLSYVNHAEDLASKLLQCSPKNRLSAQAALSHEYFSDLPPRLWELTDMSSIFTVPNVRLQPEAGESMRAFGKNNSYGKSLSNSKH
Serine/threonine-protein kinase RIO2 (Homo sapiens), sequence (Q9BVS4 whole entry, looked up): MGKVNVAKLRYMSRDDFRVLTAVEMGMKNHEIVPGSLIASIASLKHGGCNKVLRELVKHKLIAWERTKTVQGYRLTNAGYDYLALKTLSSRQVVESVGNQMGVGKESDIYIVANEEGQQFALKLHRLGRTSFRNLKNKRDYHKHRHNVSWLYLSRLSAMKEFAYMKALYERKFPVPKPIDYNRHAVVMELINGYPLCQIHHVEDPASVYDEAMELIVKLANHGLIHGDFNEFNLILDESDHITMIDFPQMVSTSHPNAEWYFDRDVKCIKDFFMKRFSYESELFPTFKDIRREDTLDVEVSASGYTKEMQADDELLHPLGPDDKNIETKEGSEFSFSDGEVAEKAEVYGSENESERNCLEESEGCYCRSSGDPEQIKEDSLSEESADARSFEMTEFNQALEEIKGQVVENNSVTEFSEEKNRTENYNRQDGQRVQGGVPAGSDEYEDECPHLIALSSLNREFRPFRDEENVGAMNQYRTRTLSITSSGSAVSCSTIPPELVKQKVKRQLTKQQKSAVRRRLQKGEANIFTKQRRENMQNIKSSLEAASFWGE
Type-1 angiotensin II receptor (Homo sapiens), sequence (P30556 whole entry): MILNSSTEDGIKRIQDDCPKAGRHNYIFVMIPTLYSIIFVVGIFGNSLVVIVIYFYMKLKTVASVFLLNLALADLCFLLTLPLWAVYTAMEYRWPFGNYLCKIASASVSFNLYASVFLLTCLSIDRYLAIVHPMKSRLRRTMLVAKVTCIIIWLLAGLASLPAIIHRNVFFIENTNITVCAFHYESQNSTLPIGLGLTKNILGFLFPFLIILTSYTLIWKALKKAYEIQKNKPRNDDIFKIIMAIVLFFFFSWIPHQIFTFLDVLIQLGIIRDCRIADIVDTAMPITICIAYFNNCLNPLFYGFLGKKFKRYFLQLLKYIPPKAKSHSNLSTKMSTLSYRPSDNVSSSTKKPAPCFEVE
Sigma non-opioid intracellular receptor 1 (Homo sapiens), sequence (Q99720 whole entry): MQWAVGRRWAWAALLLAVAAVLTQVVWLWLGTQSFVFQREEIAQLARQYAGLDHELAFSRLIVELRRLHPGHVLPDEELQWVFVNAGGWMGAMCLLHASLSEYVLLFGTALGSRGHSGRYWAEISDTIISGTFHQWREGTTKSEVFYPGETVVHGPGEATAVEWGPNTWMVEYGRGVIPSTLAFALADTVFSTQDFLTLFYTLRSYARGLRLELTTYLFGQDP
Dual specificity testis-specific protein kinase 1 (Homo sapiens), sequence (Q15569 whole entry, looked up): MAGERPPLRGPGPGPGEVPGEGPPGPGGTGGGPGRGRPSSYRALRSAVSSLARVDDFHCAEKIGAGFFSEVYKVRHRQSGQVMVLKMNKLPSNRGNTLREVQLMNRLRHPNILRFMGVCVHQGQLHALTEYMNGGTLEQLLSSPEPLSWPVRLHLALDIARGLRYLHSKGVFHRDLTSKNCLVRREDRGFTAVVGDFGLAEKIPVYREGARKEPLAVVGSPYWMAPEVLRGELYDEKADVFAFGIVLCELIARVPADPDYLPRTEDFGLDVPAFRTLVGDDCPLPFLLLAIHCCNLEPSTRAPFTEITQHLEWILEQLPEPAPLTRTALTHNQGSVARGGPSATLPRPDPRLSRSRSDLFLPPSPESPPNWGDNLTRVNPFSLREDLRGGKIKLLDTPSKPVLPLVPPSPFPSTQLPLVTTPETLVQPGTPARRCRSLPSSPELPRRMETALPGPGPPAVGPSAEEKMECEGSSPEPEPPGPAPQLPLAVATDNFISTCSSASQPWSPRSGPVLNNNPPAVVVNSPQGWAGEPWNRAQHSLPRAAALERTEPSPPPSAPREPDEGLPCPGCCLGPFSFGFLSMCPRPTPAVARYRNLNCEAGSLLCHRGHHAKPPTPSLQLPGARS
Serine/threonine-protein kinase ULK1 (Homo sapiens), sequence (O75385 whole entry): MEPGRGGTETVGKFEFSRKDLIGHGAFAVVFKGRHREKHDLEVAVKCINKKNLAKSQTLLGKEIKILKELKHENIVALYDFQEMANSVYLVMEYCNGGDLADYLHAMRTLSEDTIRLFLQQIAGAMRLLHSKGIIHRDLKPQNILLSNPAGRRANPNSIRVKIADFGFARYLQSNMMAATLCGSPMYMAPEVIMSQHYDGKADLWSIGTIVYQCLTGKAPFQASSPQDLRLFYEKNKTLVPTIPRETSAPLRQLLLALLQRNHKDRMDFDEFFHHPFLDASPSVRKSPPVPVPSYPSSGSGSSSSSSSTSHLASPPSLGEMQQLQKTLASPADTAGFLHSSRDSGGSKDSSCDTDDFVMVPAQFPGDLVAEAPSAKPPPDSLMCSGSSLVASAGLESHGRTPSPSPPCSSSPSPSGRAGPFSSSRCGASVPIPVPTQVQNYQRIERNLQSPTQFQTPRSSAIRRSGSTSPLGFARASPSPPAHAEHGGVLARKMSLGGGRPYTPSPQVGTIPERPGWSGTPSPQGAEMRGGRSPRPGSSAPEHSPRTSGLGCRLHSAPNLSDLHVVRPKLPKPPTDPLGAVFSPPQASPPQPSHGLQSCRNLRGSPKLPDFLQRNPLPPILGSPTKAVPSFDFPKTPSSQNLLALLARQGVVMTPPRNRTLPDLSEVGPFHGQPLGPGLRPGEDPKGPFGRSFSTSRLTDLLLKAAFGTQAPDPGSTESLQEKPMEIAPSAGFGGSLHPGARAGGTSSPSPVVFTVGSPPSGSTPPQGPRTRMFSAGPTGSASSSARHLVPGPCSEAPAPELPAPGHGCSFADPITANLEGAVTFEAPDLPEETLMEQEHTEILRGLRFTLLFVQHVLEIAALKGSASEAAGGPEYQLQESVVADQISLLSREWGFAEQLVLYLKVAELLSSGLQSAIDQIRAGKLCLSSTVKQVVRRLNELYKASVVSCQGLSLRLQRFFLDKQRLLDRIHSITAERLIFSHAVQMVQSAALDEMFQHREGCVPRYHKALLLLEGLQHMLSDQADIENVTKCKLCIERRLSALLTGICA
Tyrosine-protein kinase JAK3 (Homo sapiens), sequence (P52333 whole entry): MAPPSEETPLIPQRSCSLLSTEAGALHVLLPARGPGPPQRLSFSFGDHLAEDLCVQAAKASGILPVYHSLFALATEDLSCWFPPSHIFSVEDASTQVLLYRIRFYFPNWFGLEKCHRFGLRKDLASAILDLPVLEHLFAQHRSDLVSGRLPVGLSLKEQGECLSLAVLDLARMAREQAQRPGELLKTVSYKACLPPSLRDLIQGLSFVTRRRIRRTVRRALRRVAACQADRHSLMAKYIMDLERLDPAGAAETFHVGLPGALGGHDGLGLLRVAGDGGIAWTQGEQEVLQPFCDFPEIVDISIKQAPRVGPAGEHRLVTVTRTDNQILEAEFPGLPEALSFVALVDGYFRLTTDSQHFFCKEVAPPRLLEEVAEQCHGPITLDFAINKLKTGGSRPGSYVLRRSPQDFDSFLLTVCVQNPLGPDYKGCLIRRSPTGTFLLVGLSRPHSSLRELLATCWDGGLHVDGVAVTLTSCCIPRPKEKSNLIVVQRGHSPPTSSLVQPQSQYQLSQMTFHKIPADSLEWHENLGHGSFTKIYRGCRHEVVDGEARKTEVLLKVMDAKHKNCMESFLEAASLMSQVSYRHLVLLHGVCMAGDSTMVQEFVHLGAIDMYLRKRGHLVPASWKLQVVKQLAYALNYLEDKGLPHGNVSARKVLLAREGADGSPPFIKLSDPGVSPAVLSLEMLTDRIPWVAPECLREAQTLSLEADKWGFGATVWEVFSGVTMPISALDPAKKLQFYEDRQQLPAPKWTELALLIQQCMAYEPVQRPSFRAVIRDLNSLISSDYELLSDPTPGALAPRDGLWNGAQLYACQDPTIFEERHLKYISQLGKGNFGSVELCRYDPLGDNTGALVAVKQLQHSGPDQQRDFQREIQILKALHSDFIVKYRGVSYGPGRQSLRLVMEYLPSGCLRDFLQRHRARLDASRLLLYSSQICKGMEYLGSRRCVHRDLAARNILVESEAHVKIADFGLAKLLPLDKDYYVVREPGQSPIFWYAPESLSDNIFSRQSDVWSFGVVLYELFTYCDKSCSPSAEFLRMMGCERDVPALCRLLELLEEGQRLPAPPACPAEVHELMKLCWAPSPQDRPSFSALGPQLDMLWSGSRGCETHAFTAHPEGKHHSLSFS
Delta-type opioid receptor (Homo sapiens), sequence (P41143 whole entry): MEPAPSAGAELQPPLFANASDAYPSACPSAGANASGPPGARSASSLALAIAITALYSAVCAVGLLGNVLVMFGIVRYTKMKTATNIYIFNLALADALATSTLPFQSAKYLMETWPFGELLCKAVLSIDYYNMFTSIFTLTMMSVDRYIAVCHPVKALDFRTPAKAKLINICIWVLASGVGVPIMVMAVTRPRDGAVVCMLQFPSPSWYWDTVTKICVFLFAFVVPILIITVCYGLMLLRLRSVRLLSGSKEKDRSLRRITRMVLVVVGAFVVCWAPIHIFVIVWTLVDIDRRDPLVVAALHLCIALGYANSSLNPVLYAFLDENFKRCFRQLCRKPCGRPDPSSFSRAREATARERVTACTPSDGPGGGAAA

CNC(=O)Nc1ccc2c(c1)[C@@]1(CC2)OC(=O)N(CC(=O)N(Cc2ccc(F)cc2)[C@@H](C)C(F)(F)F)C1=O [A-486]
inactive: residual activity [1] 100% | residual activity [2] 83% | inhibition [3] 1% | inhibition [4] 17% | residual activity [5] 89% | residual activity [6] 100% | inhibition [7] -7% | residual activity [8] 100% | residual activity [9] 100% | residual activity [10] 97% | inhibition [11] -3.43% | inhibition [12] 4% | residual activity [13] 91% | residual activity [14] 81% | inhibition [15] 7% | residual activity [16] 92% | residual activity [17] 73% | residual activity [18] 100% | residual activity [19] 88% | residual activity [20] 100% | residual activity [21] 100% | inhibition [22] 6% | residual activity [23] 100% | residual activity [24] 64% | inhibition [25] 6% | residual activity [26] 97% | residual activity [27] 98% | residual activity [28] 87% | inhibition [29] 1% | residual activity [30] 95% | residual activity [31] 99%

CNC(=O)Nc1ccc2c(c1)CC[C@@]21OC(=O)N(CC(=O)N(Cc2ccc(F)cc2)[C@@H](C)C(F)(F)F)C1=O [A-485]
inactive: residual activity [1] 95% | residual activity [2] 67% | inhibition [3] 11% | inhibition [4] 18% | residual activity [5] 83% | residual activity [6] 73% | inhibition [7] 11% | residual activity [8] 100% | residual activity [9] 94% | residual activity [10] 91% | inhibition [11] 16.5% | inhibition [12] 12% | residual activity [13] 73% | residual activity [14] 76% | inhibition [15] -3% | residual activity [16] 82% | residual activity [17] 55% | residual activity [18] 87% | residual activity [19] 72% | residual activity [20] 92% | residual activity [21] 91% | inhibition [22] 16% | residual activity [23] 79% | residual activity [24] 70% | inhibition [25] 17% | residual activity [26] 81% | residual activity [27] 84% | residual activity [28] 93% | inhibition [29] 10% | residual activity [30] 89% | residual activity [31] 86%
